Assay results taken from patent publication US20110160223A1, “NMDA Receptor Antagonists for the Treatment of Neuropsychiatric Disorders” (priority 2008, published 2011).
Like-named read-outs stand apart in the source and are kept apart here.

Legend:
[1] = molecular target: NMDA receptor (NR1 + NR2 subunits) (Rattus norvegicus, UniProt P35439+Q00960); assay: Two electrode voltage clamp recording from Xenopus laevis oocytes (pH dependence of NMDA antagonism); format: cell-based
Experimental: cRNA was synthesized from linearized template cDNA for rat glutamate receptor subunits according to manufacturer specifications (Ambion). Quality of synthesized cRNA was assessed by gel electrophoresis, and quantity was estimated by spectroscopy and gel electrophoresis. Stage V and VI oocytes were surgically removed from the ovaries of large, well-fed and healthy Xenopus laevis anesthetized with 3-amino-benzoic acid ethyl ester (3 gm/l) as previously described. Clusters of isolated oocytes were incubated with 292 U/ml Worthington (Freehold, N.J.) type IV collagenase or 1.3 mg/ml collagenase (Life Technologies, Gaithersburg, Md.; 17018-029) for 2 hr in Ca^2+-free solution comprised of (in mM) 115 NaCl, 2.5 KCl, and 10 HEPES, pH 7.5, with slow agitation to remove the follicular cell layer. Oocytes were then washed extensively in the same solution supplemented with 1.8 mM CaCl2 and maintained in Barth's solution comprised of (in mM): 88 NaCl, 1 KCl, 2.4 NaHCO3, 10 HEPES, 0.82 MgSO4, 0.33 Ca(NO3)2, and 0.91 CaCl2 and supplemented with 100 μg/ml gentamycin, 10 μg/ml streptomycin, and 10 μg/ml penicillin. Oocytes were manually defolliculated and injected within 24 hrs of isolation with 3-5 ng of NR1 subunit cRNA and 7-10 ng of NR2 cRNA subunit in a 50 nl volume, or 5-10 ng of AMPA or kainate receptor cRNAs in a 50 nl volume, and incubated in Barth's solution at 18° C. for 1-7 d. Glass injection pipettes had tip sizes ranging from 10-20 microns, and were backfilled with mineral oil.
Two electrode voltage-clamp recordings were made 2-7 days post-injection as previously described. Oocytes were placed in a dual-track plexiglass recording chamber with a single perfusion line that splits in a Y-configuration to perfuse two oocytes. Dual recordings were made at room temperature (23° C.) using two Warner OC725B two-electrode voltage clamp amplifiers, arranged as recommended by the manufacturer. Glass microelectrodes (1-10 Megaohms) were filled with 300 mM KCl (voltage electrode) or 3 M KCl (current electrode). The bath clamps communicated across silver chloride wires placed into each side of the recording chamber, both of which were assumed to be at a reference potential of 0 mV. Oocytes were perfused with a solution comprised of (in mM) 90 NaCl, 1 KCl, 10 HEPES, and 0.5 BaCl2; pH was adjusted by addition of 1-3 M NaOH of HCl. Oocytes were recorded under voltage clamp at −40 mV. Final concentrations for control application of glutamate (50 μM) plus glycine (30 μM) were achieved by adding appropriate volumes from 100 and 30 mM stock solutions, respectively. In addition, 10 μM final EDTA was obtained by adding a 1:1000 dilution of 10 mM EDTA, in order to chelate contaminant divalent ions such as Zn^2+. Concentration-response curves for experimental compounds were obtained by applying in successive fashion maximal glutamate/glycine, followed by glutamate/glycine plus variable concentrations of experimental compounds. Dose response curves consisting of 4 to 8 concentrations were obtained in this manner. The baseline leak current at −40 mV was measured before and after recording, and the full recording linearly corrected for any change in leak current. Oocytes with glutamate-evoked responses smaller than 50 nA were not included in the analysis. The level of inhibition by applied experimental compounds was expressed as a percent of the initial glutamate response, and averaged together across oocytes from a single frog. Each experiment consisted of recordings from 3 to 10 oocytes obtained from a single frog. Results from 3-6 experiments were pooled, and the average percent responses at antagonist concentrations were fitted by the equation,
Percent Response=(100−minimum)/(1+([conc]/IC50)^nH)+minimum […]

[2] = Plasma half-life (i.v./i.p. pharmacokinetics, Table 23); format: in vivo, Rats; conditions: rat; for AUC(0-t): read-out: AUC (0-last h) i.v. XMPK; for Cmax at 30 min: 30 m
Experimental: Animals were fasted overnight prior to dose administration and food returned to the animals two hours after dosing. Following IV dosing, blood samples (ca 200 μL) were collected into separate tubes containing anticoagulant (K-EDTA) via the orbital plexus at various times post administration. Plasma samples were prepared immediately after collection by centrifugation for ten minutes using a tabletop centrifuge, and stored at −80° C. Brain tissue was weighed, homogenized on ice in 50 mM phosphate buffer (2 ml per brain) and the homogenate stored at −80° C. Plasma and brain homogenate samples were extracted by the addition of 5 volumes of cold acetonitrile, mixed well by vortexing and centrifuged at 4000 rpm for 15 minutes. The supernatant fractions were analyzed by LC-MS/MS operating in multiple reaction monitoring mode (MRM). The amount of parent compound in each sample was calculated by comparing the response of the analyte in the sample to that of a standard curve.

[3] = Oral absorption (p.o. pharmacokinetics, Table 25); format: in vivo, Rats; conditions: rat, plasma; for bioavailability: read-out: % Absorbed (% F); for AUC(0-t): read-out: AUC (0-last h) p.o.
[4] = pH 6.9, Table 21, read-out: IC50 at pH 6.9
[5] = pH 7.6, Table 21, read-out: IC50 at pH 7.6
[6] = iv, 1 mg/kg, 1 MPK, 0-4 hr i.v.
[7] = iv, 1 mg/kg, 1 MPK, 0-6 hr i.v.

Chain of NMDA receptor (NR1 + NR2 subunits) (Q00960 27-1482, other chains not shown): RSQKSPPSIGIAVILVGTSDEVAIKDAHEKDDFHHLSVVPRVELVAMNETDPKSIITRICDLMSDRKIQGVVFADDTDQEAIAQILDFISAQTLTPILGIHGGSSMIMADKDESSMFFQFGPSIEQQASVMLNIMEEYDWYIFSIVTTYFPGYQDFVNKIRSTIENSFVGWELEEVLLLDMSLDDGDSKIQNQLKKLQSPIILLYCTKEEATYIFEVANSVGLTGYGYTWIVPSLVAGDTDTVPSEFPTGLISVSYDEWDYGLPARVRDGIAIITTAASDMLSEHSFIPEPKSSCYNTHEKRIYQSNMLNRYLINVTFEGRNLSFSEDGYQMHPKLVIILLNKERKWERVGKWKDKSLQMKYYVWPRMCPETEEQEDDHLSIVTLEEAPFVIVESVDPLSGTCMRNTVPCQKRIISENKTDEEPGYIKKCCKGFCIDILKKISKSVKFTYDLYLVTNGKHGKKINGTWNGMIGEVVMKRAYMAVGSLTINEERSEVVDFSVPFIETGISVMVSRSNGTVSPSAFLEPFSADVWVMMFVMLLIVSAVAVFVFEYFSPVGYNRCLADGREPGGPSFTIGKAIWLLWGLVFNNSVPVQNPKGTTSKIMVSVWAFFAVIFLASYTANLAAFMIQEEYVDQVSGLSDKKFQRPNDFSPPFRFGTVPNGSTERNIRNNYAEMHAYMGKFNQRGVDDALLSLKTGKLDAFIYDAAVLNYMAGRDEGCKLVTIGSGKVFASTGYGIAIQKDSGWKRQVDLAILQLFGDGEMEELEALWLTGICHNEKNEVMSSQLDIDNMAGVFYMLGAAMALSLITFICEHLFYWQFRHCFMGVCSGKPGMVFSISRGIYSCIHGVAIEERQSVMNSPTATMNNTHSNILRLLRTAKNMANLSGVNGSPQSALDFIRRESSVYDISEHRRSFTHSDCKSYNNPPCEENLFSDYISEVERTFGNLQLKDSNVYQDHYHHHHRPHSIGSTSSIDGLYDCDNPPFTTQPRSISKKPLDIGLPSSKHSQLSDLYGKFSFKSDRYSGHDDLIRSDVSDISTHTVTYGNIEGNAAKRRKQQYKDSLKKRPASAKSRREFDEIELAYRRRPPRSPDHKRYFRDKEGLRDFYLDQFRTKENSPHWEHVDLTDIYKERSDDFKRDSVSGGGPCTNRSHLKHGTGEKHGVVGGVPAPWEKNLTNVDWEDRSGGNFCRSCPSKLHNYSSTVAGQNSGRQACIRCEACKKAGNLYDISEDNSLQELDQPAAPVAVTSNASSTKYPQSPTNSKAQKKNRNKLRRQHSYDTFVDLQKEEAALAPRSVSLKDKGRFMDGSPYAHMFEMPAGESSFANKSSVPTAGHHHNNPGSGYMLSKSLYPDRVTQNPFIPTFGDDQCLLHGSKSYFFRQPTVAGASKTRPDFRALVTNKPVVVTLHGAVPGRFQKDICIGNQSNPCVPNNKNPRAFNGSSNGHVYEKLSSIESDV

`CS(=O)(=O)Nc1ccc(CCC(=O)NCCNc2ccc(Cl)c(Cl)c2)cc1` showed an IC50 [1, 4] of 30 nM and an IC50 [1, 5] of 55 nM.
`CS(=O)(=O)Nc1ccc(CCCNCCNc2ccc(Cl)c(Cl)c2)cc1` showed an IC50 [1, 4] of 2 nM and an IC50 [1, 5] of 21 nM.
`CS(=O)(=O)Nc1ccc(CCCN2CCN(c3ccc(Cl)c(Cl)c3)C2=O)cc1` showed an IC50 [1, 4] of 160 nM and an IC50 [1, 5] of 809 nM.
Compound `O=C(COc1ccc2[nH]c(=O)oc2c1)NCCNc1ccc(Cl)c(Cl)c1` has an IC50 [1, 4] of 80 nM and an IC50 [1, 5] of 150 nM.
Compound `CS(=O)(=O)Nc1ccc(CCC(=O)NC/C=C/c2ccc(Cl)c(Cl)c2)cc1` has an IC50 [1, 4] of 10 nM and an IC50 [1, 5] of 70 nM.
In the case of `O=C(COc1ccc(O)cc1)NCCNc1ccc(Cl)c(Cl)c1`, the IC50 [1, 4] is reported as 280 nM and the IC50 [1, 5] is reported as 515 nM.
`O=C(CCc1ccc(O)cc1)NCCNc1ccc(Cl)c(Cl)c1` gave an IC50 [1, 4] of 210 nM and an IC50 [1, 5] of 339 nM.
Compound `O[C@H](COc1ccc2[nH]ccc2c1)CN1CCN(c2ccc(Cl)cc2)CC1` has an IC50 ([1]; pH 6.9, Table 22, read-out: IC50 pH 6.9) of over 10000 nM and an IC50 ([1]; pH 7.6, Table 22, read-out: IC50 pH 7.6) of over 10000 nM.
`CS(=O)(=O)Nc1ccc(OC[C@@H](O)CN2CCN(c3ccc(Cl)c(Cl)c3)CC2)cc1` showed a Cmax ([2]; iv, 3 mg/kg, 3MPK i.v.) of 1070 ng/mL and an AUC(0-t) ([2]; iv, 3 mg/kg, 3MPK, 0-4 hr i.v.) of 2350 ng·h/mL.
With `NC(=O)Nc1ccc(OC[C@@H](O)CN2CCN(c3ccc(Cl)cc3)CC2)cc1` [drawing 755] the IC50 ([1]; pH 6.9, Table 20, read-out: IC50 at pH 6.9) was 46 nM and the IC50 ([1]; pH 7.6, Table 20, read-out: IC50 at pH 7.6) was 452 nM.
For `O=C(COc1ccc2[nH]c(=O)oc2c1)N1CCN(c2ccc(Cl)c(Cl)c2)CC1` [drawing 768], the IC50 [1, 4] was 41 nM and the IC50 [1, 5] was 45 nM.
Compound `NC(=O)Nc1ccc(OC[C@@H](O)CN2CCN(c3ccc(Cl)cc3)CC2)cc1` [drawing 786] has a Cmax ([2]; iv, 1 mg/kg, 1 MPK i.v.) of 252 ng/mL and an AUC(0-t) [2, 6] of 1030 ng·h/mL.
Work on `O=c1[nH]c2ccc(OC[C@@H](O)CN3CCN(c4ccc(F)c(F)c4)CC3)cc2[nH]1` [drawing 787] yielded a Cmax ([2]; iv, 1 mg/kg, 1 MPK i.v.) of 241 ng/mL and an AUC(0-t) [2, 7] of 452 ng·h/mL.
`CS(=O)(=O)Nc1ccc(OC[C@@H](O)CN2CCN(c3ccc(F)c(F)c3)CC2)cc1` [drawing 789] gave a Cmax at 30 min ([2]; ip, 60 mg/kg, 60 MPK) of 13400 ng/mL and a Cmax at 2 hr ([2]; ip, 60 mg/kg, 60 MPK, 2 hr) of 13100 ng/mL.
In the case of `Cc1ccc(N2CCN(C[C@H](O)COc3ccc4c(c3)CCC(=O)N4)CC2)cc1` [drawing 790], the Cmax ([2]; iv, 1 mg/kg, 1 MPK i.v.) is reported as 464 ng/mL and the AUC(0-t) [2, 7] is reported as 347 ng·h/mL.
Work on `Oc1ccc(OC[C@@H](O)CN2CCN(c3ccc(Cl)cc3)CC2)cc1` [drawing 791] yielded a Cmax ([2]; iv, 1 mg/kg, 1 MPK i.v.) of 193 ng/mL and an AUC(0-t) [2, 6] of 187 ng·h/mL.
For `O=c1[nH]c2ccc(OC[C@@H](O)CN3CCN(c4ccc(Cl)cc4)CC3)cc2o1` [drawing 792], the Cmax ([2]; iv, 1 mg/kg, 1 MPK i.v.) was 288 ng/mL and the AUC(0-t) [2, 6] was 217 ng·h/mL.
Work on `Cc1ccc(N2CCN(C[C@H](O)COc3ccc4[nH]c(=O)oc4c3)CC2)cc1` [drawing 793] yielded a Cmax ([2]; iv, 1 mg/kg, 1 MPK i.v.) of 568 ng/mL and an AUC(0-t) [2, 6] of 364 ng·h/mL.
Work on `NC(=O)Nc1ccc(OC[C@@H](O)CN2CCN(c3ccc(Cl)cc3)C2=O)cc1` [drawing 794] yielded a Cmax ([2]; iv, 1 mg/kg, 1 MPK i.v.) of 715 ng/mL and an AUC(0-t) [2, 7] of 787 ng·h/mL.
`O=C1N(C[C@H](O)COc2ccc(O)cc2)CCN1c1ccc(Cl)cc1` [drawing 795] gave a Cmax at 30 min ([2]; iv, 3 mg/kg, 3 MPK i.v.) of 377 ng/mL.
With `O=C(COc1ccc2[nH]c(=O)[nH]c2c1)N1CCN(c2ccc(Cl)c(Cl)c2)CC1` [drawing 796] the Cmax ([2]; iv, 1 mg/kg, 1 MPK i.v.) was 576 ng/mL and the AUC(0-t) [2, 7] was 1100 ng·h/mL.
With `O=C(COc1ccc2[nH]c(=O)oc2c1)N1CCN(c2ccc(Cl)c(Cl)c2)CC1` [drawing 797] the Cmax at 15 min ([2]; ip, 10 mg/kg, 10 MPK i.p., 15 m) was 960 ng/mL.
Compound `O=c1[nH]c2ccc(OC[C@@H](O)CSc3nc4cc(Cl)c(Cl)cc4[nH]3)cc2o1` [drawing 798] has a Cmax at 30 min ([2]; iv, 3 mg/kg, 3 MPK i.v.) of 398 ng/mL.
For `Oc1ccc(OC[C@@H](O)CSc2nc3cc(Cl)c(Cl)cc3[nH]2)cc1` [drawing 799], the Cmax at 30 min ([2]; iv, 3 mg/kg, 3 MPK i.v.) was 413 ng/mL.
For `NC(=O)Nc1ccc(OC[C@@H](O)CN2CCN(c3ccc(Cl)cc3)CC2)cc1` [drawing 810], the Cmax ([3]; 10 mg/kg, 10 MPK, 0-8 hr p.o.) was 1560 ng/mL, the Tmax ([3]; 10 mg/kg, 10 MPK, 0-8 hr p.o.) was 2.67 h and the bioavailability ([3]; 10 mg/kg, 10 MPK, 0-8 hr p.o.) was 146%. The AUC(0-t) ([3]; 10 mg/kg, 10 MPK, 0-8 hr p.o.) was 8450 ng·h/mL.
Compound `O=c1[nH]c2ccc(OC[C@@H](O)CN3CCN(c4ccc(F)c(F)c4)CC3)cc2[nH]1` [drawing 811] has a Cmax ([3]; 5 mg/kg, 5 MPK, 0-6 hr p.o.) of 558 ng/mL, a Tmax ([3]; 5 mg/kg, 5 MPK, 0-6 hr p.o.) of 0.5 h and a bioavailability ([3]; 5 mg/kg, 5 MPK, 0-6 hr p.o.) of 82.2%. The AUC(0-t) ([3]; 5 mg/kg, 5 MPK, 0-6 hr p.o.) was 1860 ng·h/mL.
Work on `Cc1ccc(N2CCN(C[C@H](O)COc3ccc4c(c3)CCC(=O)N4)CC2)cc1` [drawing 812] yielded a Cmax ([3]; 5 mg/kg, 5 MPK, 0-6 hr p.o.) of 407 ng/mL, a Tmax ([3]; 5 mg/kg, 5 MPK, 0-6 hr p.o.) of 0.33 h and a bioavailability ([3]; 5 mg/kg, 5 MPK, 0-6 hr p.o.) of 31.6%. It also gave an AUC(0-t) ([3]; 5 mg/kg, 5 MPK, 0-6 hr p.o.) of 549 ng·h/mL.
Compound `Cc1ccc(N2CCN(C[C@H](O)COc3ccc4[nH]c(=O)oc4c3)CC2)cc1` [drawing 813] has a Cmax ([3]; 10 mg/kg, 10 MPK, 0-8 hr p.o.) of 57.8 ng/mL, a Tmax ([3]; 10 mg/kg, 10 MPK, 0-8 hr p.o.) of 6.7 h and a bioavailability ([3]; 10 mg/kg, 10 MPK, 0-8 hr p.o.) of 7.9%. The AUC(0-t) ([3]; 10 mg/kg, 10 MPK, 0-8 hr p.o.) was 284 ng·h/mL.
`O=c1[nH]c2ccc(OC[C@@H](O)CN3CCN(c4ccc(Cl)cc4)CC3)cc2o1` [drawing 814] gave a Cmax ([3]; 10 mg/kg, 10 MPK, 0-8 hr p.o.) of 30.6 ng/mL, a Tmax ([3]; 10 mg/kg, 10 MPK, 0-8 hr p.o.) of 8 h and a bioavailability ([3]; 10 mg/kg, 10 MPK, 0-8 hr p.o.) of 6.2%. For the same compound, the AUC(0-t) ([3]; 10 mg/kg, 10 MPK, 0-8 hr p.o.) was 132 ng·h/mL.
In the case of `Oc1ccc(OC[C@@H](O)CN2CCN(c3ccc(Cl)cc3)CC2)cc1` [drawing 815], the Cmax ([3]; 10 mg/kg, 10 MPK, 0-8 hr p.o.) is reported as 10.2 ng/mL, the Tmax ([3]; 10 mg/kg, 10 MPK, 0-8 hr p.o.) is reported as 5.3 h and the bioavailability ([3]; 10 mg/kg, 10 MPK, 0-8 hr p.o.) is reported as 3.3%. For the same compound, the AUC(0-t) ([3]; 10 mg/kg, 10 MPK, 0-8 hr p.o.) was 56.4 ng·h/mL.
